Measured values reported in patent US9458414B2, “Cleaning, surfactant, and personal care compositions” (SEGETIS, INC., priority 2012, dated 2016).

How the values were obtained:
Type in all cases: physicochemical
[1] = Coupling of water and octanoic acid by hydrotropes (amount producing a single phase)
Protocol: Hydrotropes were added to a two-component mixture of octanoic acid and deionized (DI) water to find the amount that produced a single phase from the two separate phases of water and octanoic acid.
The percent hydrotrope required to compatibilize phases (and the resulting percent octanoic acid) were calculated and the results are shown in Table 4 as well as FIG. 1.

[2] = Coupling of water and castor oil by hydrotropes
[3] = Coupling of water and soy methyl ester by hydrotropes
Protocol: Hydrotropes were added to a two-component mixture of soy methyl ester and DI water to find the amount that produced a single phase from the two separate phases of water and soy methyl ester. The percent hydrotrope required to compatibilize the phases was calculated.

[4] = ratio of water:octanoic acid 10:90
[5] = ratio of water:octanoic acid 30:70
[6] = ratio of water:octanoic acid 50:50
[7] = ratio of water:octanoic acid 70:30
[8] = ratio of water:octanoic acid 90:10
[9] = water:octanoic acid 10:90 (DI water 0.5 g, octanoic acid 4.5 g)
[10] = water:octanoic acid 30:70 (DI water 1.5 g, octanoic acid 3.5 g)
[11] = water:octanoic acid 50:50 (DI water 5.0 g, octanoic acid 5.0 g)
[12] = water:octanoic acid 70:30 (DI water 3.5 g, octanoic acid 1.5 g)
[13] = water:octanoic acid 90:10 (DI water 4.5 g, octanoic acid 0.5 g)
[14] = ratio of water to castor oil 10:90
[15] = ratio of water to castor oil 30:70
[16] = ratio of water to castor oil 50:50
[17] = ratio of water to castor oil 70:30
[18] = ratio of water to castor oil 90:10
[19] = ratio of water:soy methyl esters 10:90
[20] = ratio of water:soy methyl esters 30:70
[21] = ratio of water:soy methyl esters 50:50
[22] = ratio of water:soy methyl esters 70:30
[23] = ratio of water:soy methyl esters 90:10

SMILES	Wt % Hydrotrope required to compatibilize phases [1, 4]	Wt % Octanoic Acid (resulting, at compatibilization) [1, 4]	Wt % Hydrotrope required to compatibilize phases [1, 5]	Wt % Octanoic Acid (resulting, at compatibilization) [1, 5]	Wt % Hydrotrope required to compatibilize phases [1, 6]	Wt % Octanoic Acid (resulting, at compatibilization) [1, 6]	Wt % Hydrotrope required to compatibilize phases [1, 7]	Wt % Octanoic Acid (resulting, at compatibilization) [1, 7]	Wt % Hydrotrope required to compatibilize phases [1, 8]	Wt % Octanoic Acid (resulting, at compatibilization) [1, 8]	Amount of hydrotrope that produced a single phase [1, 9]	Amount of hydrotrope that produced a single phase [1, 10]	Amount of hydrotrope that produced a single phase [1, 11]	Amount of hydrotrope that produced a single phase [1, 12]	Amount of hydrotrope that produced a single phase [1, 13]	Wt % Castor oil (at compatibilization) [2, 14]	Wt % Hydrotrope required to compatibilize phases [2, 14]	Wt % Castor oil (at compatibilization) [2, 15]	Wt % Hydrotrope required to compatibilize phases [2, 15]	Wt % Castor oil (at compatibilization) [2, 16]	further results
COC(C)COC(C)CO (stereo not shown) [DPM, dipropylene glycol methyl ether]	30%	63%	47%	37%	51%	25%	48%	16%	43%	6%	2.14 grams	4.52 grams	10.34 grams	4.66 grams	3.7 grams	40%	56%	26%	65%	13%	Wt % Hydrotrope required to compatibilize phases [2, 16]: 74%; Wt % Castor oil (at compatibilization) [2, 17]: 5%; Wt % Hydrotrope required to compatibilize phases [2, 17]: 79%; Wt % Castor oil (at compatibilization) [2, 18]: 2%; Wt % Hydrotrope required to compatibilize phases [2, 18]: 81%; Wt % Hydrotrope required to compatibilize the phases [3, 19]: 48%; Wt % Soy Methyl Esters (at compatibilization) [3, 19]: 47%; Wt % Hydrotrope required to compatibilize the phases [3, 20]: 63%; Wt % Soy Methyl Esters (at compatibilization) [3, 20]: 28%; Wt % Hydrotrope required to compatibilize the phases [3, 21]: 74%; Wt % Soy Methyl Esters (at compatibilization) [3, 21]: 13%; Wt % Hydrotrope required to compatibilize the phases [3, 22]: 78%; Wt % Soy Methyl Esters (at compatibilization) [3, 22]: 5%; Wt % Hydrotrope required to compatibilize the phases [3, 23]: 78%; Wt % Soy Methyl Esters (at compatibilization) [3, 23]: 2%
COCC(C)O (stereo not shown) [PM, propylene glycol methyl ether]	18%	74%	38%	43%	42%	29%	42%	17%	41%	6%	1.09 grams	3.12 grams	3.62 grams	3.68 grams	3.44 grams	36%	61%	26%	65%	12%	Wt % Hydrotrope required to compatibilize phases [2, 16]: 76%; Wt % Castor oil (at compatibilization) [2, 17]: 5%; Wt % Hydrotrope required to compatibilize phases [2, 17]: 81%; Wt % Castor oil (at compatibilization) [2, 18]: 2%; Wt % Hydrotrope required to compatibilize phases [2, 18]: 83%; Wt % Hydrotrope required to compatibilize the phases [3, 19]: 51%; Wt % Soy Methyl Esters (at compatibilization) [3, 19]: 44%; Wt % Hydrotrope required to compatibilize the phases [3, 20]: 67%; Wt % Soy Methyl Esters (at compatibilization) [3, 20]: 25%; Wt % Hydrotrope required to compatibilize the phases [3, 21]: 77%; Wt % Soy Methyl Esters (at compatibilization) [3, 21]: 11%; Wt % Hydrotrope required to compatibilize the phases [3, 22]: 81%; Wt % Soy Methyl Esters (at compatibilization) [3, 22]: 5%; Wt % Hydrotrope required to compatibilize the phases [3, 23]: 77%; Wt % Soy Methyl Esters (at compatibilization) [3, 23]: 2%
